Measured values taken from ChEMBL document CHEMBL1132353, “New 4-point pharmacophore method for molecular similarity and diversity applications: overview of the method and applications, including a novel approach to the design of combinatorial libraries containing privileged substructures” (J Med Chem, 1999).

Tests used:
Prothrombin = Prothrombin (Homo sapiens, UniProt P00734)
Description: Inhibitory activity against thrombin

Coagulation factor X = Coagulation factor X (Homo sapiens, UniProt P00742); assay: Inhibitory activity against Coagulation factor Xa
Sequence of Coagulation factor X (P00742 41-179 limits assumed): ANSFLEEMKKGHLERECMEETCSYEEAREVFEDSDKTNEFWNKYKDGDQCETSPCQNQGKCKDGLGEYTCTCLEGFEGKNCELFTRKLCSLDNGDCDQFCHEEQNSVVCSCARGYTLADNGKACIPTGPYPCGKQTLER
Sequence of Coagulation factor X (P00742 235-488 limits assumed): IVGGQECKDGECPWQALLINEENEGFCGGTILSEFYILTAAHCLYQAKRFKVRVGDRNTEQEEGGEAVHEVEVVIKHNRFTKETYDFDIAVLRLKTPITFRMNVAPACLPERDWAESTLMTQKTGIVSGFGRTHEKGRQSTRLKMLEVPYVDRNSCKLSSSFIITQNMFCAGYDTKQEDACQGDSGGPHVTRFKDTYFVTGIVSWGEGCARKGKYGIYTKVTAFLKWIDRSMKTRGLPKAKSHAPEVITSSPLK

| Ki (Coagulation factor X) [nM] | Compound | Ki (Prothrombin) [nM] |
| --- | --- | --- |
| – | C[C@H]1CNc2cc(S(=O)(=O)N[C@H](CCCNC(=N)N)C(=O)N3CCCCC3C(=O)O)ccc2C1 (stereo partly drawn) | 19 |
| – | O=S(=O)(Nc1cccc(OCCNc2ccncc2)c1)c1ccccc1 | 23 |
| 13 | CC(=N)N1CCC(Oc2ccc(C(Cc3ccc4ccc(C(=N)N)cc4c3)C(=O)O)cc2)CC1 (stereo not drawn) | – |
